Patent publication US20090098096A1, “AGENT FOR CORRECTING STRESS-INDUCING NEURO-MEDIATOR, NEURO-ENDOCRINE AND METABOLIC DISTURBANCES AND METHOD FOR PREVENTING AND TREATING CONCOMITANT PATHOLOGICAL CONDITIONS” (priority 2005, published 2009)
Where no end group is shown, it is not given here.

Legend:
[1] = tested on: antioxidant systems of the liver, the brain and the blood; conditions: under normal and under stress conditions; cited from earlier work
[2] = tested on: mitochondrial respiratory chain; assay: mitochondrial respiratory chain and oxidative phosphorylation on rat brain preparations; type: biochemical
Source text: DSIP and its related peptides play a unique role in the maintenance of the structural-metabolic homeostasis not only on the level of different organs and tissues but also on the sub-cellular level of the organism. […] Such a decrease of rigidity of biological membranes enables the normalization of membrane functions, that have been disturbed by manifestations of the metabolic syndrome, such as hypertonic disease, hyperinsulinemia, misbalance of the endocrinal system, aging, etc.

[3] = tested on: lipids of various biological membranes (synaptosome, mitochondrial, erythrocyte and other); assay: peroxidation of lipids of biological membranes; type: biochemical; conditions: by modulation of the activity of antioxidant enzymes
Source text: The direct effect of the peptide on different cell membrane types was shown which may provide an additional normalizing cell functions effect. Particularly FDSIP may provide a stabilizing effect to the mitochondrial cell apparatus that also is capable of reducing cell damage by normalizing the cell respiration processes, which has been shown by us in experiments.

[4] = tested on: GABAA-receptor complex; assay: pharmacological profiling on convulsive and comatose models; parameters: species or system mice; conditions: mouse, in vivo
Source text: Particularly, the evaluation of the GABA-effecting component in the mechanism of action of the peptidic composition “Deltaran” based on FDSIP has been performed using the “pharmacological profiling” method in animals (mice). […] Also evidence has been found for a modulation of the barbiturate binding site of the GABA-benzodiazepine-ionophore-receptor complex by Deltaran and DSIP and data have been obtained concerning regulatory effect on chloride ionophore. The regulatory influences are probably realized via the peptide fragment of the GABA-benzodiazepine-ionophore-receptor complex (15).

[5] = tested on: plasma membranes of human blood cells (erythrocytes and thrombocytes) and synaptosomal membranes (mice brain); conditions: on the surface and internal non-polar region; cited from earlier work

## WAGGDASGE [DSIP, endogenous nonapeptide, delta-sleep inducing peptide]
[1]
  capacity of the antioxidant systems of the liver, the brain and the blood: credibly increases
[2]
  efficacy of the oxidative phosphorylation: significant increase
[3]
  action on the peroxidation of lipids of various biological membranes: inhibitory and preventive action
[4]
  barbiturate binding site of the GABA-benzodiazepine-ionophore-receptor complex: modulation
[5]
  mobility of structural membrane domains: increased mobility
